From patent publication US8338368B2 (priority 2005, dated 2012)
Read-outs that look alike come from different tables or passages of the source. Blank lines part the entries; values can stand above or below the substance they belong to. Ends that are not written are not given here.

Legend:
[1] = pH 7
Glucagon Receptor = Glucagon Receptor (Homo sapiens, UniProt P47871); assay: Functional assay, cAMP synthesis (luciferase reporter), glucagon receptor
GLP-1 Receptor = GLP-1 Receptor (Homo sapiens, UniProt P43220); assay: cell-based
Sequence of GLP-1 Receptor (P43220 24-463, species assumed): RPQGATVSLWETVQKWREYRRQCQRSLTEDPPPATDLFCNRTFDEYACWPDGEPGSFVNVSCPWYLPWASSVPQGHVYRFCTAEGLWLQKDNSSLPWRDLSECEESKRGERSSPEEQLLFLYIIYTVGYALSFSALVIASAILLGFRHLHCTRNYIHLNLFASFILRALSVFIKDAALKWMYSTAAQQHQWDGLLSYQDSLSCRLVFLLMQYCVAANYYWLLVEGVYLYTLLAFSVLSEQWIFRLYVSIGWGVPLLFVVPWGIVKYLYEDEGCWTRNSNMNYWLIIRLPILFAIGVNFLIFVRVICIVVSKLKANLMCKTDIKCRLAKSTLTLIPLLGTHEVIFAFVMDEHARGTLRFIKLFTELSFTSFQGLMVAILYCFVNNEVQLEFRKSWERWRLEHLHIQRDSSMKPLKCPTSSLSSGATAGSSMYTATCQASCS

Sequence of Glucagon Receptor (P47871 26-477): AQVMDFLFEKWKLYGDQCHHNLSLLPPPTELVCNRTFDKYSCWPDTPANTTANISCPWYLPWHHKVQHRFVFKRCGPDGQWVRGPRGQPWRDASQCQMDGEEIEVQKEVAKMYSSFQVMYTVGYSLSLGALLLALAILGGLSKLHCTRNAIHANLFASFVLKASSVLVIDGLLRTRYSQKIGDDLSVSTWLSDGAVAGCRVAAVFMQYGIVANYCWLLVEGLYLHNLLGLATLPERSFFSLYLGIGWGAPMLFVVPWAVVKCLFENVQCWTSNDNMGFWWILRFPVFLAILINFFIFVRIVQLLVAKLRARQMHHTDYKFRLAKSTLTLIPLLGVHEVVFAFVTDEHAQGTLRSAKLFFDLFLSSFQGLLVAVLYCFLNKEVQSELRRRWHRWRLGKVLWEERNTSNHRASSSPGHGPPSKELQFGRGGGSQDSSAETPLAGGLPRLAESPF

Substance: Glucagon Cys^17 Mal-PEG-5K [Glucagon, Cys17PEG5K]
Percent Soluble [1]: 94%

EC50 (Glucagon Receptor; read-out: cAMP Induction Glucagon Receptor EC50, Table 3 (pegylated analogs), HEK293 cells co-transfected with glucagon receptor and CRE-luciferase, 5 h at 37° C.): 0.1 ± 0.05 nM
Substance: Glucagon Cys^24 Maleimido, PEG-3.4K-dimer [Glucagon C24 Dimer]

EC50 (Glucagon Receptor): 0.84 ± 0.4 nM
Substance: HSQGTFTSDYSRYLDSRRAKDFVQWLMNT [Glucagon R12 K20]

EC50 (GLP-1 Receptor): 0.41 ± 0.24 nM
EC50 (Glucagon Receptor): 0.81 ± 0.49 nM
Substance: HSQGTFTSDYSRYLDSRRAQDFVQWLMNK [Glucagon R12 K29]
